Experimental data reported in patent publication US7488716B2 (priority 2001, dated 2009).
Where no end group is shown, it is not given here.

How the values were obtained:
GLP-1 receptor [1] = biological target: T1, GLP-1 receptor (Rattus norvegicus, UniProt P32301); test: Competitive binding of peptide to the GLP-1 receptor in RINm5F cell plasma membranes (125I GLP-1); conditions: read-out: GLP1 RIN IC50
T1 construct: endogenous in cells; host or cells: RINm5F cells
T1 sequence (P32301 22-463): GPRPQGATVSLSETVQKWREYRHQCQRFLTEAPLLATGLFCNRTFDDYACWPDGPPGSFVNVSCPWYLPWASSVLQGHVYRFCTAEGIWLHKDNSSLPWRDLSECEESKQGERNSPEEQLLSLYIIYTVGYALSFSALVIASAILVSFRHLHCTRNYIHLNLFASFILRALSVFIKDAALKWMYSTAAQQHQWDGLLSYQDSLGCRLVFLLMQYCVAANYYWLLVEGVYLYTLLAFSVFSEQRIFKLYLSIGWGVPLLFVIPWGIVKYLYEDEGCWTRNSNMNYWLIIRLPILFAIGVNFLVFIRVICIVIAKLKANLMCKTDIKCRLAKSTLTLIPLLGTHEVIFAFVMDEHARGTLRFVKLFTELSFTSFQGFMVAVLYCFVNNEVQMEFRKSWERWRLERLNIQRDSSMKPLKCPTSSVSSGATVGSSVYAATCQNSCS
Description: Flasks of RINm5F cells were washed with PBS, scraped in 20 mM Hepes-1 mM EDTA-250 mM sucrose buffer containing protease inhibitors (HES) and homogenized in a dounce homogenizer followed by repeated resuspension through a 23 gauge needle. Unbroken cells and nuclei were removed by centrifugation at 500×g for 5 minutes. The pellet was resuspended in HES buffer using a 23 gauge needle and the centrifugation was repeated. The supernatants from the two spins were combined and centrifuged at 40,000×g for 20 min. The resulting plasma membrane pellet was resuspended in HES buffer using a 23 gauge needle followed by a 25 gauge needle. Membranes were stored at −80° C. until use.
(§1) Competitive binding of some polypeptides of the invention to RINm5F cell plasma membranes was measured as follows. Ninety-six-well GF/C filtration plates (Millipore, Bedford, Mass.) were blocked with 0.3% PEI for at least one hour and washed twice with binding buffer consisting of 20 mM Tris, 2 mM EDTA, pH 7.5, 1 mg/ml BSA, and 1 mg/ml bacitracin. […] The plates were dried, scintillant was added to each well, and cpm per well determined using a Wallac Microbeta counter.

glucagon receptor = biological target: T2, glucagon receptor (Rattus norvegicus, UniProt P30082); test: Competitive binding of peptide to the glucagon receptor in rat liver plasma membranes (125I glucagon)
T2 construct: glucagon receptor present in the plasma membranes isolated from rat liver; from tissue; host or cells: rat liver plasma membranes
T2 sequence (P30082 27-485): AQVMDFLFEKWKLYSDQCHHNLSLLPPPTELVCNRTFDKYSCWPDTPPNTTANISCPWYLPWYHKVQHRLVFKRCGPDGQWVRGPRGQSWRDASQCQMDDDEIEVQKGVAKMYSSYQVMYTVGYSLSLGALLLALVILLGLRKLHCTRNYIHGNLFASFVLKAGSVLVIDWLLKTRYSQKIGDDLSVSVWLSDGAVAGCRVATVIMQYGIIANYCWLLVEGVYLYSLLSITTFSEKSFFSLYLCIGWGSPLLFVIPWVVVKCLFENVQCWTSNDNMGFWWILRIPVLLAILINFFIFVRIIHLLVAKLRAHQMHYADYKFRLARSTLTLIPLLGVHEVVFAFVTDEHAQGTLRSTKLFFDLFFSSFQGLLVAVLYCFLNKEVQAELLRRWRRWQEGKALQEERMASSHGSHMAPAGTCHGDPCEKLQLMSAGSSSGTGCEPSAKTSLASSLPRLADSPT
Description: The wet weight of the livers was determined and the tissue minced in 5 volumes of ice cold TES buffer and a slurry prepared using a polytron. All buffers and spins were kept at 4° C. The slurry was further homogenized using three strokes of a handheld dounce homogenizer. The homogenate was passed through several layers of cheesecloth and spun at 25,000×g for 10 minutes. Pellets were homogenized in 22.1 ml TES buffer using 10 strokes of a handheld dounce homogenizer. Twenty-seven point nine milliliters of 2.4 M sucrose in TE was added and mixed well. The homogenate was distributed among several tubes, and each tube was overlaid with 7 ml of TES buffer. The tubes were spun at 120,000×g for 60 minutes. The plasma membranes were removed from the interface that formed during the spin, diluted in TES and concentrated using a 15 minute spin at 200,000×g. The resulting pellet was again homogenized in 9.8 ml TES buffer, combined with 10.3 ml 2.4M sucrose, overlaid with 7 ml TES, and centrifuged at 180,000×g for 30 min. […] The final pellet was resuspended in TES. Plasma membranes were stored at −80° C. until ready for use.
as §1, with “rat liver” for “RINm5F cell”, “0.1%” for “0.3%”

GLP-1 receptor [2] = biological target: T1, GLP-1 receptor; test: Peptide signaling through GLP-1 receptor, cAMP scintillation proximity assay in RINm5F cells; format: cell-based; conditions: for GLP1 Relative Potency: EC50 of native GLP-1 (7-36) divided by EC50 of polypeptide x 100, cAMP in RINm5F cells
Description: The media was removed and the cells were washed twice with PBS. […] For assay of peptides conjugated with fatty acid, the BSA was omitted from the incubation buffer. The incubation buffer was removed, and the cells were lysed in the lysis reagent provided with the cAMP Scintillation Proximity Assay (SPA) direct screening assay system (Amersham Pharmacia Biotech Inc, Piscataway, N.J.). The amount of cAMP (in pmol) present in the lysates was determined following instructions provided with this kit.
The amount of cAMP (in pmol) produced at each concentration of peptide was plotted and analyzed by nonlinear regression using Prizm software to determine the EC50 for each peptide.

rat hepatocytes = test: Glucose release from rat hepatocytes (inhibition of glucagon mediated glucose production); format: cell-based; conditions: 1 nM glucagon, 100 nM peptide, 3 trials
Description: Hepatocytes were isolated according to a modified procedure of Berry and Friend (J. Cell. Biol. 43:506, 1969). A fed male Wistar rat was anesthetized with sodium pentobarbital (55 mg/kg, i.p.). The rat was placed on its back on the tray of the liver perfusion apparatus (37° C.), and its limbs were secured with laboratory tape. The ventrical surface was cleaned with 70% alcohol, and the abdominal cavity was opened with scissors to expose the liver, portal vein, hepatic artery and the posterior vena cava. Ligatures were placed loosely around the three vessels. A cannula was inserted into the portal vein and was secured with the ligature. […] An aliquot of cells was diluted with buffer, stained with 0.4% Trypan Blue and counted. […]
Rat hepatocytes were added into a flat bottom 96 well plate (2×10^5/100 μl/well) and pre-incubated in a 37° C. incubator with constant shaking and under 95% O2/5% CO2 flow for 10 minutes. […] The resulting supernatant was analyzed for glucose with hexokinase and glucose-6-phosphate dehydrogenase (Methods of Enzymatic Analysis, H. U. Bermeyer, Ed., Academic Press) and the A340 read on a fMAX plate reader (Molecular Devices, Sunnyvale, Calif.).
Glucose output was calculated after subtracting the amount of glucose produced in the unstimulated hepatocytes from each data point and the percent inhibition was calculated.

perfused rat islets = test: Insulin secretion by perfused rat islets; format: cell-based; conditions: 50 nM peptide, 8 mM glucose
Description: Sprague Dawley rats (275-320 g) were used as the source of donor islets. Briefly, the pancreas was filled with 10 ml of cold reconstituted Liberase RI (Boehringer Manheim), harvested and incubated with additional 5 ml enzyme solution in water bath for 30 minutes. Tissue suspension was washed twice with cold 10% FBS/Hanks buffer (Gibco), resuspended in 8 ml 25% ficoll (Sigma) and then layered with 5 ml each of 23%, 20% and 11% ficoll. The islets in the 20% layer after centrifugation were removed, washed twice with cold 10% FBS/Hank buffer and resuspended in 10% FBS/RPMI 1640 media (Sigma).
Insulin secretion of perfused rat islets mediated by some peptides of the invention was measured as follows. The bi-phasic responses of insulin release stimulated by these polypeptides were tested by islet perfusion. Fifty islets were loaded in the perifusion chamber and perifused with HEPES-KRB containing 3 mM glucose at 37° C. After 60 min, islets were exposed to buffer containing 8 mM glucose with or without peptide (50 nM) and perifused for another 30 min. Fractions of perifusate were collected at 1 or 5 minute intervals for insulin determination. Insulin was measured using an ELISA kit (Alpco Diagnostics, Windham, N.H.).

[3] = test system: glucagon-mediated elevation in blood glucose; test: Glucagon-stimulated glucose production in fed Wistar rats; format: in vivo, rat; conditions: iv, 0.3 nmol/kg glucagon plus 1 nmol/kg peptide
Description: The anesthesia was withdrawn and the conscious rats were tail-bled again after 10, 20 and 30 min.
Glucose inhibition was determined by analyzing the area under the glucose curve after subtracting the basal glucose level (dAUC).

[4] = test system: dispersed rat islet cells; test: Insulin secretion from dispersed rat islet cells; format: cell-based; conditions: 50 nM peptide, fold over control
Description: Insulin secretion of dispersed rat islets mediated by a number of peptides of the invention was measured as follows. Islets of Langerhans were isolated from SD rats (200-250 g) through a digestion procedure using collagenase. Dispersed islet cells were prepared through treatment with trypsin, seeded into 96 V-bottom plates and pelleted. Cells were cultured overnight in media. Media was aspirated and the cells were pre-incubated with Krebs-Ringer-HEPES buffer containing 3 mM glucose for 30 minutes at 37° C. Pre-incubation buffer was removed and cells were stimulated with Krebs-Ringer-HEPES buffer containing the appropriate glucose concentration (e.g., 8 mM), with and without peptides for an appropriate time at 37° C. […] A portion of supernatant was removed and its insulin content was measured by SPA. The results are expressed as fold over control (FOC). At a concentration of 50 nM, the polypeptide having an amino acid sequence shown in SEQ ID NO:27 increased insulin secretion from dispersed islet cells approximately 3-fold.

[5] = test system: glucagon-mediated elevation in blood glucose; test: Glucagon-stimulated glucose production in fed Balb/C mice; format: in vivo
Description: The change in glucose over the 15 minutes was calculated for each mouse.

[6] = Intraperitoneal glucose tolerance testing (IPGTT) in rats or mice; format: in vivo; conditions: ipGTT in mice 3 hours post dosing with 100 μg/kg peptide
Description: Blood glucose levels during intraperitoneal glucose tolerance testing in rats or mice by some polypeptides of the invention were measured as follows. The in vivo activity of the polypeptides of the invention when administered subcutaneously was examined in rats or mice. Rats or mice fasted overnight were given a subcutaneous injection of control or peptide (100 μg/kg). Basal blood glucose was measured prior to administration of peptides or three or 17 hours after administration of derivatized peptides, and the rats or mice were given 2 g/kg of glucose intraperitoneally. Blood glucose was measured again after 15, 30 and 60 minutes in rats or 30 and 60 minutes in mice.

In the case of “HSQGTFTSDYAKYLDARRAKEFIAWLVKGR-NH2 [G27]”, the IC50 (GLP-1 receptor [1]) is reported as 0.0022 µM, the IC50 (glucagon receptor) is reported as 0.0693 µM and the “GLP1 Relative Potency” value (GLP-1 receptor [2]) is reported as 13.4%. For the same substance, the Emax (GLP-1 receptor [2]; RIN-m5F, read-out: % GLP1 max) was 98.1%, the “Inhibition of glucagon mediated glucose production” value (rat hepatocytes) was 47% and the “Increase of insulin secretion from perfused islets” value (perfused rat islets) was “approximately 2 fold”. The “Inhibition of glucagon-mediated elevation in blood glucose (dAUC)” value [3] was 63%.
For “HSQGTFTSDYARYLDARRAREFIKWLVRGRC(43kD) (HSQGTFTSDYARYLDARRAREFIKWLVRGRC(PEG 43kD); listed as Homo sapiens) [G4185, 43kD PEG linked to the cysteine residue]”, the “GLP1 Relative Potency” value (GLP-1 receptor [2]) was 0.7%, the “% GLP1 max” value (GLP-1 receptor [2]; maximal cAMP activity relative to native GLP-1 (7-36), RINm5F cells) was 98.3% and the “Increase of insulin secretion from dispersed islet cells” value [4] was “approximately 3 fold”. The “% Inhibition” value ([5]; Balb/C mice, 10 μg/kg glucagon, 100 μg/kg peptide sc 17 h before) was 31%, the “Glucose 15 min” value ([5]; Balb/C mice, 15 min after 10 μg/kg iv glucagon) was 150 mg/dL and the “Glucose Delta (15 − 0)” value ([5]; Balb/C mice, change over 15 min after glucagon) was 75 mg/dL. The “Glucose -Vehicle delta” value ([5]; Balb/C mice, delta minus vehicle group delta) was 59 mg/dL, the “% of 10 μg/kg Glucagon” value ([5]; Balb/C mice, glucose change relative to glucagon alone) was 69% and the “Glucose 0 min” value ([5]; Balb/C mice, just prior to 10 μg/kg iv glucagon, peptide 100 μg/kg sc 17 h before) was 75 mg/dL. For the same substance, the “In vivo % Decrease glucagon stimulated blood glucose” value ([5]; glucagon challenge in mice 17 hours post dosing with 100 μg/kg peptide) was 31% and the “In vivo Decrease IpGTT AUC” value [6] was 36%.
